Test results from patent US5298496A (Chinoin Gyogyszer- ES Vegyeszeti Termekek Gyara Rt., priority 1990, dated 1994).

Assays:
[1] = UV spectrum shift of dilute aqueous SIN 1 solution (about 10 μg/ml) with cyclodextrins, diffuse lighting, room temperature; assay type: physicochemical; details: for efficiency sequence concluded from the UV spectrum shift: stabilizing effect on SIN 1, ranking in words
Method: The solutions were stored at room temperature (20°-22° C.) in diffuse lighting and in certain periods (daily) the UV spectrum of the solutions were registered in the interval between 220-350 nm. As a control only the aqueous solution, and the 0,05N hydrochloric acid solution were used respectively. […] The pH values of the applied cyclodextrin solutions of greatest concentration differed only within ±0.2 unit from the pH value of distilled water.
The decomposition hindering, slow down effect of DIMEB (2,6-di-O-methyl-β-cyclodextrin) is definite too. In the presence of 20 mg/ml DIMEB the spectrum of the solution has shown only a shift within 1 nm after a 6 day storage. We also tested the stabilizing effect of TRIMEB (2,3,6-tri-O-methyl-β-cyclodextrin), of γ-CO, β-CO and of hydroxypropyl-β-CO. The efficiency sequence concluded from the UV spectrum shift was as follows: […]

[2] = Hydrolytic decomposition of SIN 1 to SIN 1C as function of pH (literature / background); assay type: physicochemical; details: diffused lighting
Method: It can be generally said that the sydnonimine derivatives are sensitive to extreme pH values, and are decomposed quickly. […] The process is strictly pH dependent, e.g. to achieve a decomposition of 10% (SIN 1C) 53 sec. at a pH value of 8, 15 hours at a pH of 6, 67 days at a pH of 4, and 13 years at a pH of 1-2 are necessary. (Chem. Pharm. Bull. 19/6 1079, 1971). […] The decomposition can be followed from the UV spectrum directly.

[3] = Change of λ max of SIN 1 with time in phosphate buffers of pH 6.4, 7.0 and 7.6 with and without CDPSI (UV spectrophotometry); assay type: physicochemical; details: for λ max.: 1 mg/ml SIN 1, +CDPSI 20 mg/ml
[4] = Thin-layer chromatography of SIN 1 decomposition with and without CDPSI; assay type: physicochemical; details: 1 day of storage
Method: In such a concentration range spectrophotometric measurement dose not give a descriptive picture. For this reason the decomposition degree was determined by thin-layer chromatography in the following way: From the solutions 10 μl were dropwise added on a Kieselgel 60 F254 plate (10×10 cm, Merck). Running mixture: cyclohexane:ethyl-acetate in a ratio of 1:1. The running tub was let for 30 minutes to saturation. On the plate also SIN 1C reference solution was dropwise added. On the dropping spot the plate was dried in a cold air flow protected from light and it was let to run up to a […] height. During the running period the running tub was put on a dark place. After evaporation of the solvent the plate was evaluated visually in UV light at 254 nm.

[5] = HPLC decomposition test of SIN 1 in pH 6.3 phosphate buffer, 5 weeks; assay type: physicochemical; details: room temperature, protected from light, complex in pH 6.3 phosphate buffer with 50 mg/ml CDPSI, control in distilled water
Method: (§1) The quantitive measurement of the decomposition degree was carried out by the HPLC method too.
(§2) HPPLC measurement circumstances to the separation of SIN 1-SIN 1 C
(§3) ______________________________________
(§4) Beckman 114 M Solvent Delivery Module,
(§5) 165 Variable Wavelength Detektor, Hewlett-Packard
(§6) Column: Ultrasphere ODS analytical column […],
(§7) Eluent: 0.05 M sodium acetate:
(§8) flowing rate: 1.0 ml/min.
(§9) chart speed: 0.5 cm/min.
(§10) retention times: tR SIN1: 2.9 min.
1. […] Complex was formed with 50 mg/ml (100 fold quantity) of CDPSI. After storage of 5 weeks the HPLC chromatograms were evaluated.

[6] = HPLC decomposition test of SIN 1 in pH 7 phosphate buffer, 4 days; assay type: physicochemical
Method: as §1, §2, §3, §4, §5, §6, §7, §8, §9, §10
2. The test was carried out in a pH 7 phosphate buffer too, choosing similar concentration circumstances.
The chromatograms obtained after 4 days storage were evaluated.

[7] = test system: rats; assay: Cardioprotective activity on rats, p.o.; assay type: in vivo
[8] = test system: potassium depolarized strips; assay: Relaxing effect on potassium depolarized strips
[9] = Membrane permeation test, diffusion of SIN 1 through Visking type cellophane membrane; assay type: physicochemical; details: SIN 1 alone, 1 mg/ml, 37°±1° C.
Method: Visking type cellophane membrane (average pore diameter 24 Angstroms) was used. […] The solutions were stirred by magnetic stirrers and were kept at 37°±1° C. […] The test was repeated in the presence of different cyclodextrins at different concentrations in the donor cell compartment.

[10] = Transformation SIN 1→SIN 1A→SIN 1C in the presence of cyclodextrins in 0.02M acetate buffer pH 5.5 (HPLC); assay type: physicochemical
Excerpt: (The SIN 1A was detected by HPLC)

[11] = 4 days, 0,5 mg/ml SIN 1, 50 mg/ml CDPSI

COC[C@H]1O[C@@H]2O[C@H]3[C@H](O)[C@@H](OC)[C@@H](O[C@H]4[C@H](O)[C@@H](OC)[C@@H](O[C@H]5[C@H](O)[C@@H](OC)[C@@H](O[C@H]6[C@H](O)[C@@H](OC)[C@@H](O[C@H]7[C@H](O)[C@@H](OC)[C@@H](O[C@H]8[C@H](O)[C@@H](OC)[C@@H](O[C@H]1[C@H](O)[C@H]2OC)O[C@@H]8COC)O[C@@H]7COC)O[C@@H]6COC)O[C@@H]5COC)O[C@@H]4COC)O[C@@H]3COC [DIMEB, 2,6-di-O-methyl-β-cyclodextrin]
shift of the UV spectrum ([1]; 6 day storage, 20 mg/ml DIMEB): ≤ 1 nm
efficiency sequence concluded from the UV spectrum shift [1]: CDPSI>DIMEB>TRIMEB>βCO≥HPβCO

N=c1c[n+](N2CCOCC2)[n-]o1 [SIN 1, 3-morpholino-sydnonimine]
time of decomposition in diluted aqueous solution [2]: 1 to 3 days
time to practically complete transformation into SIN 1C ([1]; aqueous solution without cyclodextrin, stored similarly): 2 to 3 days
decomposition of control solution ([1]; distilled water, 1 week, without CDPSI, in words): practically decomposed
Δλ ([3]; buffer pH 6,4, after 6 days): 12 nm
λ max. ([3]; pH 6.4, 0 days (at preparation)): 291.5 nm
λ max. ([3]; pH 6.4, 1 day): 289.0 nm
λ max. ([3]; pH 6.4, 4 days): 284.9 nm
λ max. ([3]; pH 6.4, 6 days): 279.8 nm
λ max. ([3]; pH 7.0, 0 days (at preparation)): 290.6 nm
λ max. ([3]; pH 7.0, 1 day): 280.4 nm
λ max. ([3]; pH 7.0, 6 days): 277.3 nm
λ max. ([3]; pH 7.6, 0 days (at preparation)): 291.2 nm
λ max. ([3]; pH 7.6, 1 day): 276.4 nm
λ max. ([3]; pH 7.6, 6 days): 277.6 nm
unchanged SIN 1 (TLC) ([4]; pH 7 buffer): still perceptible
unchanged SIN 1 (TLC) ([4]; pH 7.6 buffer): practically no longer detectable
Active ingredient content: SIN 1 [5]: 0,016
pH value of the solutions after storage ([6]; 4 days): 6.57
Active ingredient content: SIN 1 [6, 11]: 0.041 mg/mL
Active ingredient content: SIN 1C [6, 11]: 0.125 mg/mL
activity in words ([7]; 1 mg/kg): does not exert an activity
cardioprotective activity ([7]; 1 mg/kg (complex: same active ingredient)): 11%
T/2 (duration of action) ([8]; 1 or 2 μM): 47 min
T/max (time of maximal relaxation) ([8]; after administration, 1 or 2 μM): 18 min
inhibition at 1 µM ([8]; read-out: maximal relaxation of sustained contraction): 58%
T 50% (diffusion half life of SIN 1) [9]: 54 min

COC[C@H]1O[C@@H]2O[C@H]3[C@H](OC)[C@@H](OC)[C@@H](O[C@H]4[C@H](OC)[C@@H](OC)[C@@H](O[C@H]5[C@H](OC)[C@@H](OC)[C@@H](O[C@H]6[C@H](OC)[C@@H](OC)[C@@H](O[C@H]7[C@H](OC)[C@@H](OC)[C@@H](O[C@H]8[C@H](OC)[C@@H](OC)[C@@H](O[C@H]1[C@H](OC)[C@H]2OC)O[C@@H]8COC)O[C@@H]7COC)O[C@@H]6COC)O[C@@H]5COC)O[C@@H]4COC)O[C@@H]3COC [TRIMEB, 2,3,6-tri-O-methyl-β-cyclodextrin]
efficiency sequence concluded from the UV spectrum shift [1]: CDPSI>DIMEB>TRIMEB>βCO≥HPβCO

OC[C@H]1O[C@@H]2O[C@H]3[C@H](O)[C@@H](O)[C@@H](O[C@H]4[C@H](O)[C@@H](O)[C@@H](O[C@H]5[C@H](O)[C@@H](O)[C@@H](O[C@H]6[C@H](O)[C@@H](O)[C@@H](O[C@H]7[C@H](O)[C@@H](O)[C@@H](O[C@H]8[C@H](O)[C@@H](O)[C@@H](O[C@H]1[C@H](O)[C@H]2O)O[C@@H]8CO)O[C@@H]7CO)O[C@@H]6CO)O[C@@H]5CO)O[C@@H]4CO)O[C@@H]3CO [βCO, β-cyclodextrin]
efficiency sequence concluded from the UV spectrum shift [1]: CDPSI>DIMEB>TRIMEB>βCO≥HPβCO
SIN 1A found vs control [10]: more than 7 fold
